Results published in patent publication US20170246311A1, “PEPTIDES FOR BINDING ALTERNATIVELY ACTIVATED MACROPHAGES” (University of Washington, priority 2016, published 2017).
Like-named read-outs stand apart in the source and are kept apart here. Starred links: 1 amine or outer side, 2 acyl side, 3 side chain; linkers in the order of their positions; H or OH if unused. Positions of bridges follow the written chain, without caps; N, C: chain ends. Non-standard residues stand in square brackets, D forms with d. Residues, ends and D or L forms follow the SMILES beside them. No end group written: not given here. *: point of attachment. Perfluorobiphenyl(4,4') = Fc1c(F)c([*:1])c(F)c(F)c1-c1c(F)c(F)c([*:2])c(F)c1F; Biotin = O=C1N[C@H]2[C@H](CS[C@H]2CCCCC(=O)*)N1; Phe(F5) = N[C@@H](Cc1c(F)c(F)c(F)c(F)c1F)C(=O)O

What was measured:
[1] = Serum stability study in normal mouse serum, analysis by MALDI-TOF MS; details: for overall serum stability (in words): MALDI-TOF MS
Description: The peptide of interest (30 μL of 10 mg/mL stock solution in dH2O) was added to normal mouse serum (300 μL) and incubated at 37° C. in an incubator. At each time point, an aliquot of 40 μL was drawn and an equal volume of ACN was added to the aliquot to precipitate serum proteins. The cloudy mixture was centrifuged at 10,000 rpm for 5 min and then supernatant removed. A solution of 1:1 H2O/ACN (80 μL) was added to the pellet and sonicated for 10 min to further extract the remaining peptides. This resuspended mixture was then centrifuged, and the supernatant was pooled with the former and vacuum-dried on a Speedvac machine. The dried pellet was solubilized in H2O (50 μL) by sonication for 10 min. The mixture was then centrifuged, and the supernatant was drawn and analyzed by MALDI-TOF MS.
To evaluate serum stability of M2pep, the peptide was incubated in mouse serum, and aliquots of the serum at various time points were withdrawn for analysis of degradation patterns by MALDI-TOF MS.
Different M2pep analogs (30 μL from 10 mg/mL stock solution in H2O) were incubated in normal mouse serum (300 μL) at 37° C. in an incubator. An aliquot of the serum (40 μL) was drawn at different time intervals and precipitated with an equal volume of cold ACN. The mixture was centrifuged at 15,000 rpm for 5 min, and the supernatant was collected. A solution of H2O/ACN (1:1 v/v, 80 μL) was added to the pellet with a 10-min sonication to further extract residual peptides. The mixture was then centrifuged. The supernatant was pooled with the former and dried under vacuum on a Speedvac machine. The peptide pellet was resuspended in H2O (50 μL) with a 10-min sonication before analysis by MALDI-ToF MS.

M2 macrophages [2] = test: Binding study of biotinylated peptides on polarized bone marrow-derived macrophages (streptavidin-FITC, flow cytometry); format: cell-based, mouse; details: for Kd: M2 macrophages, half-maximal MFI, read-out: apparent dissociation constant (KD)
Description: All animal handling protocols were approved by the University of Washington Institutional Animal Care and Use Committee. Bone marrow harvest was performed following the previously reported protocol. Briefly, femur and tibia were excised from 6-8 week-old female c57bl6/027 mice. Cuts were made on the ends of each bone, and RPMI 1640 medium was used to flush out bone marrow cells via 18G needle. The cells were cultured on petri dishes in RPMI 1640 medium supplemented with 20% donor horse serum, 1% antibiotic-antimycotic (AbAm), and 20 ng/mL M-CSF. After 7 d of culture, macrophages were activated by replacing M-CSF with 25 ng/mL IFN-γ and 100 ng/mL LPS for M1 macrophage or 25 ng/mL IL-4 for M2 macrophage. The macrophages were activated for 2 d and then scraped off the petri dishes with cell lifter for binding studies.
(§1) Peptide solutions at different concentrations for binding study were prepared by dilutions from the stock solution (10 mg/mL in dH2O) with PBS containing 1% BSA (PBSA). M1 and M2 macrophages (50,000 cells/well) were seeded on a black 96-well plate and incubated in the peptide solutions on ice for 20 min. Unbound peptides were washed off with PBSA twice. The macrophages were subsequently incubated with streptavidin-FITC for 15 min on ice to probe for the bound peptides. Excess streptavidin-FITC was washed off with PBSA twice, and the macrophages were then resuspended in PBS for analysis by MACSQuant Flow Cytometer (Miltenyi Biotec, San Diego, Calif.). Propidium iodide was added to the samples before the data acquisition to discriminate dead cells. Flow cytometry data were analyzed with FlowJo Analysis Software (Tree Star, Ashland, Oreg.). Binding study of peptides post serum incubation was similarly performed with the following additions: The peptides (5 mM stock solution in H2O) were diluted in serum to a final concentration of 0.5 mM and incubated at 37° C. in an incubator. At each time point, an aliquot of the peptides was drawn and diluted in PBS to the final concentration for the binding study. The diluted aliquot was heated at 80° C. for 30 min to inactivate serum proteins, stored in a −20° C. freezer, and thawed for use in the binding study after aliquots at all time points were collected.
All animal handling protocols were approved by the University of Washington Institutional Animal Care and Use Committee. Bone marrow-derived cells were harvested from female c57bl/6 mice as previously described. In brief, femurs and tibias of the mice were excised and flushed with RPMI 1640 medium via an 18G needle. The cells were cultured on petri dishes containing RPMI 1640 medium supplemented with 20% donor horse serum, 1% antibioticantimycotic (AbAm), and 20 ng/mL M-CSF. After 7 d in culture, the medium was replaced with an activation medium whereby M-CSF was replaced with 25 ng/mL IFN-γ and 100 ng/mL LPS for M1 activation or with 25 ng/mL IL-4 for M2 activation. For M1 activation medium, AbAm was replaced with 1% penicillin-streptomycin (Pen-Strep). After 2 d of activation, the activated macrophages were scraped off the petri dishes for binding studies.
Biotinylated peptide stock solutions were prepared in H2O at 10 mg/mL concentration and quantified for the exact concentration using Quant*Tag Biotin quantification kit. The stock solutions were diluted in PBS with 1% BSA (PBSA) to different concentrations for binding studies. Activated macrophages were seeded on a black 96-well plate (50,000 cells/well) and incubated with the peptide solutions for 20 min on ice. The cells were washed twice with PBSA and subsequently incubated with streptavidin-FITC for 15 min on ice. After two additional washes, the cells were resuspended in PBS for analysis via MACSQuant Flow Cytometer (Miltenyi Biotec, San Diego, Calif.). Propidium iodide (PI) was added before running each sample to assess for cell viability. Data analysis was processed on FlowJo Analysis Software (Tree Star, Ashland, Oreg.). […]

M2 macrophages [3] = test: Binding of M2pep analogs post serum incubation; format: cell-based, mouse; details: for decline in binding activity with serum pre-incubation: 150 μM of M2pepBiotin, 50 μM of AcM2pep(RY)Biotin and cyclic M2pep(RY)Biotin, mouse serum 37° C.
Description: as §1
For TAM targeting applications, M2pep analogs will be exposed to serum during systemic circulation. Therefore, we next studied how the serum stability of M2pep analogs affects subsequent binding to target cells. Peptides were incubated with mouse serum at 37° C. to mimic peptidase exposure in systemic circulation, and aliquots of the serum were withdrawn at various time points for binding studies with polarized macrophages. In general, binding activity of the M2pep analogs corresponded with the peptides' serum stability (FIG. 6). […]

macrophages = format: cell-based, mouse
[4] = Solubility of cyclized peptide analogs
[5] = target: M2pep receptor on M2 macrophages (identity unknown) (mouse); test: flow cytometry on murine M2 macrophages, biotinylated peptide + streptavidin-FITC; apparent KD from half-maximal MFI
[6] = target: M2pep receptor on M2 macrophages (identity unknown) (mouse); test: flow cytometry binding curves on murine M2 macrophages
[7] = target: M2pep receptor on M2 macrophages (identity unknown) (mouse); test: flow cytometry on murine M2 macrophages; apparent KD

CC(C)[C@H](NC(=O)CNC(=O)[C@H](Cc1c[nH]c2ccccc12)NC(=O)[C@@H]1CCCN1C(=O)[C@H](CC(=O)O)NC(=O)[C@H](CCC(N)=O)NC(=O)[C@H](CCC(=O)O)NC(=O)[C@@H](N)Cc1ccc(O)cc1)C(=O)N[C@@H](CCCCN)C(=O)N[C@@H](Cc1c[nH]c2ccccc12)C(=O)N[C@@H](Cc1c[nH]c2ccccc12)C(=O)N[C@@H](Cc1ccc(O)cc1)C(=O)NCC(=O)NCC(=O)NCC(=O)N[C@@H](CO)C(=O)N[C@@H](CCCCN)C(=O)N[C@@H](CCCCN)C(=O)N[C@@H](CCCCNC(=O)CCCC[C@@H]1SC[C@@H]2NC(=O)N[C@@H]21)C(N)=O [M2pepBiotin, YEQDPWGVKWWYGGGSKK]
overall serum stability (in words) ([1]; mouse serum, 37° C.): Poor serum stability | Kd (M2 macrophages [2]): 220 µM | decline in binding activity with serum pre-incubation (M2 macrophages [3]): fastest and greatest decline in binding activity

CC(C)[C@@H]1NC(=O)CNC(=O)[C@H](Cc2c[nH]c3ccccc23)NC(=O)[C@@H]2CCCN2C(=O)[C@H](CC(=O)O)NC(=O)[C@H](CCC(N)=O)NC(=O)[C@H](CCC(=O)O)NC(=O)[C@H](Cc2ccc(O)cc2)NC(=O)CNC(=O)[C@H](Cc2c(F)c(F)c(F)c(F)c2F)NC(=O)[C@H](Cc2c(F)c(F)c(F)c(F)c2F)NC(=O)[C@@H](N)CSSC[C@@H](C(=O)N[C@H](CCCCN)C(=O)N[C@H](CCCCN)C(=O)N[C@H](CCCCN)C(=O)N[C@@H](CCCCNC(=O)CCCC[C@@H]2SC[C@@H]3NC(=O)N[C@@H]32)C(N)=O)NC(=O)CNC(=O)[C@H](Cc2ccc(O)cc2)NC(=O)[C@H](Cc2c[nH]c3ccccc23)NC(=O)[C@H](Cc2ccc(O)cc2)NC(=O)[C@H](CCCNC(=N)N)NC1=O [F(F5)F(F5)-cyclized M2pep(RY)Biotin] (H-C[Phe(F5)][Phe(F5)]GYEQDPWGVRYWYGC[dK][dK][dK]K(Biotin)-NH2; disulfide 1-18)
toxicity to macrophages (macrophages): very toxic to macrophages even at low micromolar concentrations | solubility (in words) [4]: less soluble than the FF-cyclized analog

CC(C)[C@@H]1NC(=O)CNC(=O)[C@H](Cc2c[nH]c3ccccc23)NC(=O)[C@@H]2CCCN2C(=O)[C@H](CC(=O)O)NC(=O)[C@H](CCC(N)=O)NC(=O)[C@H](CCC(=O)O)NC(=O)[C@H](Cc2ccc(O)cc2)NC(=O)CNC(=O)[C@@H](N)CSSC[C@@H](C(=O)N[C@H](CCCCN)C(=O)N[C@H](CCCCN)C(=O)N[C@H](CCCCN)C(=O)N[C@@H](CCCCNC(=O)CCCC[C@@H]2SC[C@@H]3NC(=O)N[C@@H]32)C(N)=O)NC(=O)CNC(=O)[C@H](Cc2ccc(O)cc2)NC(=O)[C@H](Cc2c[nH]c3ccccc23)NC(=O)[C@H](Cc2ccc(O)cc2)NC(=O)[C@H](CCCNC(=N)N)NC1=O [cyclic M2pep(RY)Biotin, CGYEQDPWGVRYWYGCkkk] (H-CGYEQDPWGVRYWYGC[dK][dK][dK]K(Biotin)-NH2; disulfide 1-16)
serum incubation time at which the peptide remained detectable by MALDI-TOF MS ([1]; mouse serum, 37° C.): ≥ 48 h | time without endolytic cleavage at the W10/W11 site ([1]; mouse serum, 37° C.): at least 8 h | overall serum stability (in words) ([1]; mouse serum, 37° C.): markedly improved serum stability over the linear AcM2pep(RY)Biotin | incubation in mouse serum after which the cyclized peptide was eventually degraded ([1]; prolonged incubation in mouse serum): more than 1 day | Kd (M2 macrophages [2]; listed as disulfide-cyclized M2pep(RY)): 36.3 µM | binding activity to M2 macrophages (in words) (M2 macrophages [2]; biotinylated peptide, on ice 20 min): comparable binding activity to the linear AcM2pep(RY)Biotin | decline in binding activity with serum pre-incubation (M2 macrophages [3]): least decline | binding activity after 24 h serum incubation (M2 macrophages [3]; 24 h in mouse serum at 37° C.): retained the highest binding activity

CC(C)[C@@H]1NC(=O)CNC(=O)[C@H](Cc2c[nH]c3ccccc23)NC(=O)[C@@H]2CCCN2C(=O)[C@H](CC(=O)O)NC(=O)[C@H](CCC(N)=O)NC(=O)[C@H](CCC(=O)O)NC(=O)[C@H](Cc2ccc(O)cc2)NC(=O)CNC(=O)[C@@H](N)CSc2c(F)c(F)c(c(F)c2F)-c2c(F)c(F)c(c(F)c2F)SC[C@@H](C(=O)N[C@H](CCCCN)C(=O)N[C@H](CCCCN)C(=O)N[C@H](CCCCN)C(=O)N[C@@H](CCCCNC(=O)CCCC[C@@H]2SC[C@@H]3NC(=O)N[C@@H]32)C(N)=O)NC(=O)CNC(=O)[C@H](Cc2ccc(O)cc2)NC(=O)[C@H](Cc2c[nH]c3ccccc23)NC(=O)[C@H](Cc2ccc(O)cc2)NC(=O)[C@H](CCCNC(=N)N)NC1=O [DFBP-cyclized M2pep(RY)Biotin] (H-CGYEQDPWGVRYWYGC[dK][dK][dK]K(Biotin)-NH2; linker 1-16 via Perfluorobiphenyl(4,4'))
solubility (in words) [4]: higher solubility than FF-cyclized M2pep(RY)Biotin

CC(C)[C@@H]1NC(=O)CNC(=O)[C@H](Cc2c[nH]c3ccccc23)NC(=O)[C@@H]2CCCN2C(=O)[C@H](CC(=O)O)NC(=O)[C@H](CCC(N)=O)NC(=O)[C@H](CCC(=O)O)NC(=O)[C@H](Cc2ccc(O)cc2)NC(=O)CNC(=O)[C@H](Cc2ccccc2)NC(=O)[C@H](Cc2ccccc2)NC(=O)[C@@H](N)CSSC[C@@H](C(=O)N[C@H](CCCCN)C(=O)N[C@H](CCCCN)C(=O)N[C@H](CCCCN)C(=O)N[C@@H](CCCCNC(=O)CCCC[C@@H]2SC[C@@H]3NC(=O)N[C@@H]32)C(N)=O)NC(=O)CNC(=O)[C@H](Cc2ccc(O)cc2)NC(=O)[C@H](Cc2c[nH]c3ccccc23)NC(=O)[C@H](Cc2ccc(O)cc2)NC(=O)[C@H](CCCNC(=N)N)NC1=O [FF-cyclized M2pep(RY)Biotin] (H-CFFGYEQDPWGVRYWYGC[dK][dK][dK]K(Biotin)-NH2; disulfide 1-18)
solubility (in words) [4]: significantly reduces solubility

DFBP-cyclized M2pep(RY)Biotin (peptide)
Kd [5]: 2.03 µM | fold enhancement of binding activity against DFBP-cyclized M2pepBiotin [6]: 4 fold

YEQDPWGVKWWYGGGSKKK(Biotin)-NH2 [M2pepBiotin]
Kd [7]: 220 µM
